From patent US10906946B2, “Thrombin inhibitors” (priority 2015, dated 2021) come the findings set out here.

The target in one test is T1, thrombin (Homo sapiens, UniProt P00734).
T1 construct: residues in the termini of the light chain; and in the autolysis loop and C-terminus of the heavy chain; purchased Chemo-Sero-Therapeutic Research Institute (Kaketsuken, Japan), as a gift, not bought
As to the kind of experiment: Inhibition of thrombin fibrinogenolytic activity (fibrinogen clotting time). Type of test: biochemical. The method, then: (§1) Thrombin amidolytic activity assays for all peptides were performed in 96-wells microtiter plates in 50 mM Tris buffer (pH 7.4) containing 100 mM NaCl and 1 mg/ml bovine serum albumin. Typically, 100 μl of peptide and 100 μl of thrombin were pre-incubated for different durations before 100 μl of S2238 was added to the reaction wells. The rates of formation of p-nitroaniline were followed by measuring the absorbance at 405 nm for 10 min with a Tecan InfinitePro M200 microplate reader from Tecan (Männedorf, Switzerland). Dose-response curves were fitted using the GraphPad Prizm software (San Diego, Calif., USA) to calculate IC50 values and Hill coefficients. To measure the inhibitory constants, different concentrations of S2238 were used and the residual velocities were determined using the Morrison's tight binding equation. Inhibition of thrombin fibrinogenolytic activity of peptides were tested by measuring absorbance at 650 nm using a Sunrise microplate reader from Tecan (Männedorf, Switzerland) as described previously [Koh C Y, et al., J Biol Chem 282: 29101-13 (2007)]. The selectivity of avathrin was examined against 13 serine proteases (FIG. 5). Effects of avathrin on the amidolytic activities of these serine proteases were determined using respective chromogenic substrates. Cleavage of avathrin by thrombin. Avathrin (150 μM) was incubated with thrombin (5 μM), in 50 mM Tris buffer (pH 7.4) containing 150 mM NaCl and 1 mg/ml BSA. After different incubation times, reactions were quenched with 1% TFA (pH 1.8) and loaded onto a Jupiter Proteo column (4 μm, 90 Å, 100×1.0 mm) attached to a Dionex nano-HPLC system from Thermo Fisher Scientific (Waltham, Mass., USA) and eluted using an acetonitrile gradient with 0.05% TFA and 99.95% MilliQ water as eluent A and 0.05% TFA, 19.95% MilliQ water and 80% ACN as eluent B. Masses of all peaks were measured to identify cleavage products, which were subsequently quantified by integrating the peaks and calculating the area under the curves. To measure the effect of different pre-incubation times on the thrombin inhibitory activity, amidolytic assays were performed for various incubation times (up to 36 h).

The target of a further test is T2, human α-thrombin (Homo sapiens, UniProt P00734).
T2 construct: residues in the termini of the light chain; purchased Chemo-Sero-Therapeutic Research Institute (Kaketsuken, Japan), as a gift, not bought
Nature of the test: Thrombin amidolytic activity assay with chromogenic substrate S2238. In kind it is biochemical. The method, then:
as §1, with “Typically, 100 μl of peptide and 100 μl of thrombin were pre-incubated for different durations before 100 μl of S2238 was added to the reaction wells.” left out, “Cleavage of avathrin by thrombin.” left out

The test system of test [1] is platelets (ADP-induced platelet aggregation). Nature of the test: Preservation of platelet function in blood tubes (Multiplate, ADP-induced platelet aggregation). In kind it is cell-based, human (healthy volunteers). The conditions noted are these: control tubes (0.109M citrate; >15 μg/ml hirudin), ADP agonist. The method, then: Individual peptides are dissolved in phosphate buffered saline to prepare 10× peptide solutions (ie. concentrations of peptides are 10 times higher than the final concentrations at which they are to be tested). 0.3 ml of the 10× peptide solutions are placed in blood tubes without any additives. Blood was drawn from healthy volunteers using syringes and immediately transferred to a 50 ml conical centrifuge tube (Falcon tube) before pipetting 2.7 ml of the blood into blood tubes with peptide solutions. Final concentrations of peptides are as stated in Table 5 and 6.
Blood tubes with various peptides at different concentrations were left standing at room temperature until tested at designated times. At different time points, tubes were inverted several times and blood samples were taken out for platelet aggregation tests using a Multiplate® Platelet aggregometer with adenosine diphosphate (ADP) as agonist according to manufacturer's recommended protocols.

The mark [2] stands for this setting: IC50 of inhibition of thrombin amidolytic activity, thrombin 0.81 nM, S2238 100 μM, without pre-incubation (0 min) where stated.
Where [3] appears, read: inhibitory constant Ki for thrombin, thrombin 0.81 nM, various S2238 concentrations.
Where [4] appears, read: IC50 (nM), Table 4, members of variegin family.

“Also recorded” adds a separate entry of the source. Read-outs that look alike come from different tables or passages of the source. Ends that are not written are not given here. Peptide text beside a SMILES is read from it.

As a reminder, the IC50 is the midpoint of a concentration-inhibition curve. In general, Ki refers to the dissociation constant of the complex between target and ligand, obtained from inhibition or displacement. Take `CC[C@H](C)[C@H](N)C(=O)N[C@@H](CO)C(=O)N[C@@H](CCCCN)C(=O)N[C@@H](CCC(N)=O)C(=O)NCC(=O)N[C@@H](CC(C)C)C(=O)NCC(=O)NCC(=O)N[C@@H](CC(=O)O)C(=O)N[C@@H](Cc1ccccc1)C(=O)N[C@@H](CCC(=O)O)C(=O)N[C@@H](CCC(=O)O)C(=O)N[C@H](C(=O)N1CCC[C@H]1C(=O)N[C@@H](CO)C(=O)N[C@@H](CC(=O)O)C(=O)N[C@@H](CCC(=O)O)C(=O)N[C@H](C(=O)N[C@H](C(=O)N[C@@H](CCC(=O)O)C(=O)O)[C@@H](C)CC)[C@@H](C)CC)[C@@H](C)CC` [IS20] (H-ISKQGLGGDFEEIPSDEIIE-OH; N-terminus and C-terminus assumed): at thrombin, the “effect on fibrinogen clotting time / thrombin fibrinogenolytic activity” value was “inhibited the fibrinogenolytic activity of thrombin in a dose-dependent manner; also recorded: prolonged fibrinogen clotting times in a dose dependent manner”. The “Hill slope of thrombin amidolytic inhibition” value at human α-thrombin (0 min pre-incubation where stated) was determined as 0.86±0.02. Moreover, the “Hill slope of thrombin amidolytic inhibition, 10 min pre-incubation” value at human α-thrombin (10 min pre-incubation) was 0.87±0.01. Besides, on human α-thrombin (setting [2]), it took 12.4 ± 0.32 nM to reach half-maximal inhibition (IC50). The compound further showed a Ki on human α-thrombin (Ki(nM), Table 2) of 5.76 ± 0.23 nM. Further, at human α-thrombin (Table 2), the “Hill Slope” value stood at 0.86 ± 0.02.
Take `CC[C@H](C)[C@H](NC(=O)[C@H](C)NC(=O)[C@H](CCCNC(=N)N)NC(=O)[C@@H](NC(=O)[C@H](C)NC(=O)[C@H](CCC(=O)O)NC(=O)[C@H](CC(=O)O)NC(=O)[C@@H](N)CO)C(C)C)C(=O)N1CCC[C@H]1C(=O)N[C@@H](CCCCN)C(=O)N[C@@H](CCSC)C(=O)N[C@@H](Cc1ccc(O)cc1)C(=O)N[C@@H](CO)C(=O)N[C@H](C(=O)N[C@@H](C)C(=O)N1CCC[C@H]1C(=O)N1CCC[C@H]1C(=O)NCC(=O)N[C@@H](CC(=O)O)C(=O)N[C@@H](Cc1ccccc1)C(=O)N[C@@H](CCC(=O)O)C(=O)N[C@@H](CCC(=O)O)C(=O)N[C@H](C(=O)N1CCC[C@H]1C(=O)N[C@@H](CCC(=O)O)C(=O)N[C@@H](CCC(=O)O)C(=O)N[C@@H](Cc1ccc(O)cc1)C(=O)N[C@@H](CC(C)C)C(=O)N[C@@H](CC(=O)O)C(=O)N[C@@H](CC(=O)O)C(=O)N[C@@H](CCC(=O)O)C(=O)N[C@@H](CO)C(=O)O)[C@@H](C)CC)[C@@H](C)O` [UV005]: the “fold drop in affinity for thrombin compared to ultravariegin” value at human α-thrombin was “around 3.6 fold”. At human α-thrombin (IC50 of inhibition of thrombin amidolytic activity, FIG. 17 legend), this compound displayed an IC50 of 0.91 ± 0.47 nM. At human α-thrombin (setting [3]), this compound registered an inhibitory constant (Ki) of 0.016 ± 0.00305 nM.
`CC[C@H](C)[C@H](NC(=O)[C@H](C)NC(=O)[C@H](CC(=O)O)NC(=O)[C@H](CC(=O)O)NC(=O)[C@@H]1CCCN1C(=O)[C@@H](NC(=O)[C@H](CCC(=O)O)NC(=O)[C@H](CCC(=O)O)NC(=O)[C@H](Cc1ccccc1)NC(=O)[C@H](CC(=O)O)NC(=O)CNC(=O)[C@@H]1CCCN1C(=O)[C@@H]1CCCN1C(=O)[C@H](C)NC(=O)[C@@H](NC(=O)[C@H](CO)NC(=O)[C@H](Cc1ccc(O)cc1)NC(=O)[C@@H](N)CCSC)[C@@H](C)O)[C@@H](C)CC)C(=O)N[C@@H](CCC(=O)O)C(=O)N[C@@H](CCC(=O)O)C(=O)O` [UV011] (H-MYSTAPPGDFEEIPDDAIEE-OH): on human α-thrombin, the “fold better Ki than avathrin C-terminal cleavage product IS20” value is given as “around 4 fold” and the “fold better Ki than variegin C-terminal cleavage product MH22” value is given as “around 10 fold”. At human α-thrombin (setting [2]), this compound had a concentration for half-maximal inhibition (IC50) of 1.66 ± 0.77 nM. The compound also had a Ki on human α-thrombin (setting [3]) of 1.39 ± 0.23 nM.
Turning to `CC[C@H](C)[C@H](NC(=O)[C@H](CCC(=O)O)NC(=O)[C@H](CC(=O)O)NC(=O)[C@H](CC(=O)O)NC(=O)[C@@H]1CCCN1C(=O)[C@@H](NC(=O)[C@H](CCC(=O)O)NC(=O)[C@H](CCC(=O)O)NC(=O)[C@H](Cc1ccccc1)NC(=O)[C@H](CC(=O)O)NC(=O)CNC(=O)[C@@H]1CCCN1C(=O)[C@@H]1CCCN1C(=O)[C@H](C)NC(=O)[C@@H](NC(=O)[C@H](CO)NC(=O)[C@H](Cc1ccc(O)cc1)NC(=O)[C@H](CCSC)NC(=O)[C@H](CCCCN)NC(=O)[C@@H]1CCCN1C(=O)[C@@H](NC(=O)[C@H](C)NC(=O)[C@H](CCCNC(=N)N)NC(=O)[C@@H](NC(=O)[C@H](C)NC(=O)[C@H](CCC(=O)O)NC(=O)[C@H](CC(=O)O)NC(=O)[C@@H](N)CO)C(C)C)[C@@H](C)CC)[C@@H](C)O)[C@@H](C)CC)C(=O)N[C@@H](CCC(=O)O)C(=O)N[C@@H](CCC(=O)O)C(=O)O` [UV012] (H-SDEAVRAIPKMYSTAPPGDFEEIPDDEIEE-OH; N-terminus and C-terminus assumed), at human α-thrombin, the “fold drop in affinity for thrombin compared to ultravariegin” value is on record as 5 fold.
`O=C(O)CC(O)(CC(=O)O)C(=O)O` [citrate, reference compound]: the “Multiplate AUC (U)” value in test [1] (1.5 h) was 37 U; in test [1] (4 h), 32.2 U; in test [1] (24 h) it was 12.9 U; in test [1] (48 h), 1.4 U; in test [1] (72 h), 0.7 U.
The compound “ELESGDEDSEGGDSQSSPTESAAPRLHQREGGGGDFENVEYDQDQK [Amblyomma maculatum]” showed an IC50 against human α-thrombin (setting [4]) of 130 ± 1.74 nM.
For “SDVAPADYESDEGDNDGGHDGSEVAKPKMPRGNGGGGDFEEIPEVE [Rhipicephalus sanguineus]”, the IC50 at human α-thrombin (Table 4, members of variegin family, read-out: IC50) was found to be 42.4 ± 0.62 nM. Besides, on human α-thrombin (thrombin 0.81 nM, various S2238 concentrations, read-out: inhibitory constant Ki for thrombin), the Ki stood at 8.79 ± 0.65 nM.
Turning to “TGSDDDDEYDMYESDGDSNEGNDNDEFETAVPRLPNPNSGRDSEHIPMPVN [Hyalomma marginatum rufipes]”, the IC50 against human α-thrombin (setting [4]) was 32.5 ± 3.94 nM. The compound also returned a Ki at human α-thrombin (setting [3]) of 6.13 ± 0.39 nM.
On to hirudin [reference compound], for which the “Multiplate AUC (U)” value in test [1] (1.5 h) is 69.5 U; in test [1] (4 h), 50.2 U; in test [1] (24 h), 36.2 U; in test [1] (48 h), 29.1 U; in test [1] (72 h) it was 26.9 U.
